For data set [1], the system named is Corynebacterium diphtheriae P.W.8. Description: MIC against Corynebacterium diphtheriae P.W.8 (Table 6). Format: cell-based.
In data set [2] the test system is Trichophyton mentagrophytes IAM 8051. Description: MIC against Trichophyton mentagrophytes IAM 8051 (Table 6). Format: cell-based. As to conditions: IAM8051.
A further data set has as its system Sarcina lutea ATCC 9341. In words: MIC against Sarcina lutea ATCC 9341 (Table 6). The class given is cell-based. As to conditions: Micrococcus luteus, ATCC9341.
Data set [3] has as its system Micrococcus flavis ATCC 10240. Description: MIC against Micrococcus flavis ATCC 10240 (Table 6). The class given is cell-based. As to conditions: ATCC10240.
The next data set deals with Bacilus subtilis CPI 219. Description: MIC against Bacilus subtilis CPI 219 (Table 6). The class given is cell-based.

Converted amounts (≈) assume the structure as drawn.

`COC(=O)C12Oc3ccc(-c4ccc5c(c4O)C(=O)C4=C(O)CC(C)C(O)C4(C(=O)OC)O5)c(O)c3C(=O)C1=C(O)CC(C)C2O` (single isomer, unassigned) [Compound I, secalonic acid A having a 2,2'-linkage, reference compound]: the solubility in chloroform result is given as “insoluble”.

The term MIC denotes the least concentration at which growth counts as inhibited. Higher therefore signals a less susceptible organism. On to `COC(=O)C12Oc3ccc(-c4ccc5c(c4O)C(=O)C4=C(O)CC(C)C(O)C4(C(=O)OC)O5)c(O)c3C(=O)C1=C(O)CC(C)C2O` (centres unmarked) [2,2'-SD, secalonic acid D having a 2,2'-linkage, reference compound], for which the MIC is 50 µg/mL (≈ 78.3 µM) in data set [1]; 12.5 µg/mL (≈ 19.6 µM) in data set [2]; > 100 µg/mL against Sarcina lutea ATCC 9341; 100 µg/mL (≈ 157 µM) in data set [3]; > 100 µg/mL against Bacilus subtilis CPI 219.

With `COC(=O)C12Oc3ccc(-c4ccc(O)c5c4OC4(C(=O)OC)C(=C(O)CC(C)C4O)C5=O)c(O)c3C(=O)C1=C(O)CC(C)C2O` (centres unmarked) [2,4'-SD, secalonic acid D having a 2,4'-linkage], the minimum inhibitory concentration (MIC) came to 12.5 µg/mL (≈ 19.6 µM) in data set [1]; 3.1 µg/mL (≈ 4.85 µM) in data set [2]; 12.5 µg/mL (≈ 19.6 µM) in the data set on Sarcina lutea ATCC 9341; 25 µg/mL (≈ 39.1 µM) in data set [3]; 50 µg/mL (≈ 78.3 µM) with Bacilus subtilis CPI 219.

Consider `COC(=O)C12Oc3c(-c4ccc(O)c5c4OC4(C(=O)OC)C(=C(O)CC(C)C4O)C5=O)ccc(O)c3C(=O)C1=C(O)CC(C)C2O` (centres unmarked) [4,4'-SD, secalonic acid D having a 4,4'-linkage], for which the MIC in data set [1] is 6.3 µg/mL (≈ 9.87 µM); in data set [2], 1.6 µg/mL (≈ 2.51 µM); in the data set with Sarcina lutea ATCC 9341 it was 3.1 µg/mL (≈ 4.85 µM); in data set [3] it was 12.5 µg/mL (≈ 19.6 µM); against Bacilus subtilis CPI 219, 12.5 µg/mL (≈ 19.6 µM).

Take `COC(=O)[C@]12Oc3ccc(-c4ccc5c(c4O)C(=O)C4=C(O)C[C@@H](C)[C@H](OC=O)[C@@]4(C(=O)OC)O5)c(O)c3C(=O)C1=C(O)C[C@@H](C)[C@@H]2OC=O` [diformyl derivative of Compound I, diformyl derivative of secalonic acid A having a 2,2'-linkage]: the solubility in chloroform entry is recorded as “soluble”.
